Test results reported in PubChem BioAssay (NCI).
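96-well plates; 48 h exposure; 5 concentrations. Endpoints by linear interpolation between flanking doses. Not reached: highest tested concentration assigned. GI50: concentration for 50% inhibition of growth. TGI: concentration producing complete growth inhibition.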

Legend:
Test in all cases: DTP human tumour cell line panel, 48 h
[1] = system: CAKI-1 renal
[2] = system: TK-10 renal
[3] = system: OVCAR-5 ovarian
[4] = system: PC-3 prostate
[5] = system: SK-MEL-2 melanoma
[6] = system: UO-31 renal
[7] = system: HCC-2998 colon
[8] = system: NCI-H522 lung
[9] = system: HOP-92 NSCLC
[10] = system: NCI-H460 lung

Row | Structure (SMILES) | GI50 [1] | TGI [1] | GI50 [2] | TGI [2] | GI50 [3] | TGI [3] | GI50 [4] | TGI [4] | GI50 [5] | TGI [5] | GI50 [6] | TGI [6] | GI50 [7] | TGI [7] | GI50 [8] | TGI [8] | GI50 [9] | TGI [9] | GI50 [10] | TGI [10]
1 | COc1ccccc1-c1ccc2c(N)c(C(=O)c3ccc4c(c3)OCO4)sc2n1 | 10.2 µM | 25.9 µM | 12.8 µM | 28.6 µM | 11.2 µM | 29.5 µM | 10.6 µM | 40.3 µM | 3.38 µM | 10.9 µM | 4.12 µM | 16.7 µM | 12 µM | 29.1 µM | 4.32 µM | 19.7 µM | 2.99 µM | 13 µM | 4.04 µM | 16.7 µM
2 | CC[C@H](C)C(=O)O[C@H]1CCC=C2C=C[C@H](C)[C@H](CC[C@@H]3C[C@@H](O)CC(=O)O3)[C@H]21 | 2.6 µM | 11.2 µM | 22.5 µM | > 100 µM | 14.4 µM | > 100 µM | 1.7 µM | > 100 µM | 1.77 µM | 11.7 µM | 5.29 µM | > 100 µM | 36.9 µM | > 100 µM | 2.41 µM | 39.6 µM | 0.135 µM | 0.706 µM | 8.59 µM | > 100 µM
3 | CCCCNP1(NCCCC)=NP(NCCCC)(NCCCC)=NP(NCCCC)(NCCCC)=NP(NCCCC)(NCCCC)=N1 | 9.3 µM | 36 µM | 0.933 µM | 13 µM | 1.61 µM | 9.81 µM | 0.24 µM | 12.4 µM | 0.922 µM | 3.51 µM | 2.81 µM | 14.4 µM | 0.304 µM | 3.7 µM | 0.287 µM | 4.3 µM | 0.0514 µM | 0.917 µM | 0.594 µM | 4.25 µM
4 | O=C(Nc1cccc(-n2ccc3c(NC(=O)c4ccccc4)nccc32)c1)c1ccc(Cl)c(Cl)c1 | 0.0531 µM | 1.9 µM | 0.865 µM | 2.28 µM | 0.476 µM | 1.71 µM | 0.0965 µM | 1.52 µM | 1.12 µM | 2.79 µM | 0.573 µM | 2.18 µM | 0.286 µM | 1.27 µM | 0.0786 µM | 1.22 µM | 0.13 µM | 2.12 µM | 0.158 µM | 1.08 µM
5 | COC(=O)c1cc2c([nH]c3ccccc32)c(-c2nc3ccccc3cc2CO)n1 | > 100 µM | > 100 µM | > 100 µM | > 100 µM | > 100 µM | > 100 µM | > 100 µM | > 100 µM | > 100 µM | > 100 µM | > 100 µM | > 100 µM | > 100 µM | > 100 µM | 73 µM | > 100 µM | 53.5 µM | > 100 µM | > 100 µM | > 100 µM
6 | Fc1ccc(-c2c(-c3ccncc3)[nH]c3cccnc23)cc1 | 7.43 µM | > 25 µM | 3.02 µM | > 25 µM | > 25 µM | > 25 µM | > 25 µM | > 25 µM | > 25 µM | > 25 µM | 3.2 µM | > 25 µM | > 25 µM | > 25 µM | > 19.8 µM | > 25 µM | 22.3 µM | > 25 µM | 18.3 µM | > 25 µM
7 | CCCCCCCCCCCCCC(=O)NO | – | 52.4 µM | – | 59.4 µM | – | > 74.1 µM | – | 28.6 µM | – | 47.6 µM | – | 25.3 µM | – | 28.7 µM | – | 19.5 µM | – | 43.6 µM | – | 38.3 µM
8 | N#Cc1ccc(C(=O)c2cnn(-c3ccc(F)cc3)c2N)cc1 | > 25 µM | > 25 µM | > 25 µM | > 25 µM | > 25 µM | > 25 µM | > 25 µM | > 25 µM | > 25 µM | > 25 µM | > 25 µM | > 25 µM | > 25 µM | > 25 µM | > 25 µM | > 25 µM | > 25 µM | > 25 µM | > 25 µM | > 25 µM
9 | COc1ccccc1/C=C1\CCC(CN2CCOCC2)C1=O (stereo unspecified) | – | 32.1 µM | – | 12.5 µM | – | 33.7 µM | – | 30 µM | – | 32.2 µM | – | 31.4 µM | – | 28.3 µM | – | 3.8 µM | – | 40.2 µM | – | 36 µM
10 | CCc1c2c(nc3ccc(OC(=O)OCc4ccc(B5OC(C)(C)C(C)(C)O5)cc4)cc13)-c1cc3c(c(=O)n1C2)COC(=O)[C@]3(O)CC | < 0.01 µM | 0.315 µM | 0.88 µM | > 100 µM | 0.114 µM | 6.23 µM | 0.0514 µM | > 100 µM | 0.326 µM | 8.57 µM | 0.0189 µM | 0.339 µM | 0.0661 µM | 3.86 µM | 0.0196 µM | 14.2 µM | 0.0269 µM | 14.4 µM | < 0.01 µM | 0.182 µM
11 | COc1cc(C(=O)c2cnc(-c3ccc4cc[nH]c4c3)[nH]2)cc(OC)c1OC | 0.0503 µM | 4.2 µM | 0.34 µM | 12.4 µM | 0.225 µM | 23.9 µM | 0.0286 µM | 15.1 µM | – | – | 0.153 µM | 5.11 µM | 0.117 µM | 4.02 µM | < 0.0128 µM | 0.0913 µM | 0.632 µM | 6.16 µM | 0.0376 µM | 11.5 µM
12 | CN1CCN(C(=O)[C@@]2(C)CC[C@]3(C)CC[C@]4(C)C(=CC[C@@H]5[C@@]6(C)CC[C@H](OC(=O)c7cccnc7)C(C)(C)[C@@H]6CC[C@]54C)[C@@H]3C2)CC1 | – | – | 1.79 µM | 3.31 µM | 1.69 µM | 3.42 µM | 1.61 µM | 3.54 µM | 13.2 µM | 28.6 µM | 1.43 µM | 2.86 µM | 1.81 µM | 3.33 µM | 1.95 µM | 4.17 µM | 1.38 µM | 3.2 µM | 1.78 µM | 3.33 µM
